Laboratory results published in patent USRE44704E1, “Compositions and methods for treating cancer using immunoconjugates and chemotherapeutic agents” (Immunogen Inc., priority 1999, dated 2014).
Read-outs that look alike come from different tables or passages of the source.

How the values were obtained:
[1] = system: human small cell lung cancer SW-2 cells; experiment: Anti-tumor effect of huN901-DM1, topotecan and their combination in established subcutaneous SW-2 xenograft model (Example 5, FIG. 8); type: in vivo; conditions: SCID mice
Experimental: FIG. 8 is a graph comparing the anti-tumor activity of (i) a control, (ii) huN901-DM1, (iii) topotecan, and (iv) the combination of huN901-DM1 and topotecan, against small cell lung cancer xenografts in SCID mice.
The anti-tumor effect of a combination of a low dose of huN901-DM1 and topotecan (available as HYCAMTIN® from SmithKline Beecham Pharmaceuticals), one of the approved drugs for the treatment of small cell lung cancer (SCLC) in humans, was evaluated in an established subcutaneous xenograft model of SCLC. SCID mice (24 animals) were inoculated with human small cell lung cancer SW-2 cells (8×10^6 cells/animal) injected subcutaneously into the right flank of the mice. When the tumors reached about 80 mm^3 in size, the mice were randomly divided into four groups (6 animals per group). The first group of mice was treated with topotecan (1.4 mg/kg×5, qd) administered i.v. A second group of animals was treated with huN901-DM1 (DM1 dose of 100 μg/kg×5, qd) administered i.v. The third group of mice received a combination of topotecan and huN901-DM1, using the same doses and schedules as in groups 1 and 2. A control group of animals received phosphate-buffered saline (PBS) using the same schedule as the animals in group 2. Tumor growth was monitored by measuring tumor size twice per week. Tumor size was calculated using the formula: length×width×height×½.

[2] = system: human lung adenocarcinoma NCI-H441 cells; conditions: NCI-H441 s.c. xenografts, SCID mice, tumors about 125 mm^3 at start; paclitaxel 15 mg/kg×5 q2d i.p.
Experimental: (§1) A control group of animals received phosphate-buffered saline (PBS) using the same schedule as the animals in group 2. Tumor growth was monitored by measuring tumor size twice per week. Tumor size was calculated using the formula: length×width×height×½.

[3] = system: NCI N417 cells (small cell lung cancer xenografts); type: in vivo; conditions: NCI N417 s.c. xenografts, SCID mice, tumors approx. 100 mm^3 at start; huN901-DM1 DM1 dose 75 μg/kg/d×5 i.v.; paclitaxel 10 mg/kg/d×5 i.p.
Experimental: In this experiment, a low, non-curative dose of huN901-DM1 was used with an optimal does of paclitaxel (Sigma Chemical Co., St. Louis, Mo.). SCID mice (7 animals per group) were inoculated subcutaneously with NCI N417 cells (8×10^6 cells/animal). After the tumors were well-established (average tumor size was approximately 100 mm^3), one group of animals was treated with huN901-DM1 at a DM1 dose of 75 μg/kg/d×5, administered i.v. everyday. A second group of animals was treated with paclitaxel at a dose of 10 mg/kg/d×5, administered by i.p. everyday. […] A fourth, control group of animals was left untreated. Tumor size was measured as described by Liu et al, Proc. Natl. Acad. Sci., 93:8618-8623 (1996). Animals were also monitored for weight loss as an indicator of signs of toxicity.
In the control group of animals, the tumors grew rapidly to a size of about 900 mm^3 by Day 28 post-tumor inoculation. In animals treated with either huN901-DM1 or paclitaxel, there was a modest anti-tumor effect with a tumor growth delay of 4 days in each case.

[4] = system: human small cell lung cancer SW-2 cells; experiment: Anti-tumor effect of huN901-DM1, docetaxel and their combination in established subcutaneous SW-2 xenograft model (Example 4, FIG. 7); type: in vivo; conditions: SW-2 s.c. xenografts, SCID mice, tumors about 100 mm^3 at start; docetaxel 5 mg/kg×5 q2d i.v.; huN901-DM1 DM1 dose 75 μg/kg×5 qd i.v.
Experimental: Tumor size was calculated with the formula: length×width×height×½.
In 3 out of 6 animals in this treatment group, the tumor was eradicated—resulting in cures lasting greater than 200 days. In the remaining 3 animals in this group, there was a tumor growth delay of 52 days, which is 24 days longer than the calculated additive effect.

[5] = system: human colon cancer HT-29 cells; experiment: Anti-tumor effect of C242-DM1, CPT-11 and their combination in established subcutaneous HT-29 xenograft model (Example 7, FIG. 10); type: in vivo; conditions: HT-29 s.c. xenografts, SCID mice, tumors about 80 mm^3 at start; CPT-11 50 mg/kg×2 q3d i.v.; C242-DM1 DM1 dose 75 μg/kg×5 qd i.v.
Experimental: as §1

[6] = system: NCI N417 cells (small cell lung cancer xenografts); experiment: Anti-tumor activity of huN901-DM1, cisplatin plus etoposide, and the triple combination against established NCI N417 xenografts (Example 3, FIG. 6); type: in vivo; conditions: NCI N417 s.c. xenografts, SCID mice; huN901-DM1 DM1 dose 75 μg/kg/d×5 i.v.; cisplatin 2 mg/kg/d×3 i.v. every other day; etoposide 8 mg/kg/d×3 every other day
Experimental: In this experiment, a low, non-curative dose of huN901-DM1 was used with an optimal dose of cisplatin (Sigma Chemical Co., St. Louis, Mo.) and etoposide (Sigma Chemical Co., St. Louis, Mo.). SCID mice (7 animals per group) were inoculated subcutaneously with NCI N417 cells (8×10^6 cells/animal). After the tumors were well-established (average tumor size was approximately 100 mm^3), one group of animals was treated with huN901-DM1 at a DM1 dose of 75 μg/kg/d×5, administered i.v. everyday. A second group of animals was treated with cisplatin (at a dose of 2 mg/kg/d×3, administered by i.v. ever other day) and etoposide (at a dose of 8 mg/kg/d×3, administered every other day). A third group of animals was treated with huN901-DM1, cisplatin and etoposide using the same dose and schedule used for a the individual agents. A fourth, control group of animals was left untreated. Tumor size was measured as described by Liu et al, Proc. Natl. Acad. Sci., 93:8618-8623 (1996). Animals were also monitored for weight loss as an indicator of signs of toxicity.
In the control group of animals, the tumors grew rapidly to a size of about 900 mm^3 by Day 28 post-tumor inoculation. In animals treated with either huN901-DM1 or cisplatin and etoposide, there was a modest anti-tumor effect with a tumor growth delay of 4 days in each case.

Molecule: CC[C@@]1(O)C(=O)OCc2c1cc1n(c2=O)Cc2cc3c(CN(C)C)c(O)ccc3nc2-1 [topotecan]
- tumor growth delay ([1]; SW-2 s.c. xenografts, tumors about 80 mm^3 at start, topotecan 1.4 mg/kg×5 qd i.v.): 12 days

Molecule: CC(=O)O[C@H]1C(=O)[C@@]2(C)[C@H]([C@H](OC(=O)c3ccccc3)[C@]3(O)C[C@H](OC(=O)[C@H](O)[C@@H](NC(=O)c4ccccc4)c4ccccc4)C(C)=C1C3(C)C)[C@]1(OC(C)=O)CO[C@@H]1C[C@@H]2O [paclitaxel]
- tumor growth delay [2]: 4 days
- tumor growth delay [3]: 4 days

Molecule: CC(=O)O[C@@]12CO[C@@H]1C[C@H](O)[C@@]1(C)C(=O)[C@H](O)C3=C(C)[C@@H](OC(=O)[C@H](O)[C@@H](NC(=O)OC(C)(C)C)c4ccccc4)C[C@@](O)([C@@H](OC(=O)c4ccccc4)[C@H]21)C3(C)C [docetaxel]
- tumor growth delay [4]: 8 days

Molecule: CCc1c2c(nc3ccc(OC(=O)N4CCC(N5CCCCC5)CC4)cc13)-c1cc3c(c(=O)n1C2)COC(=O)[C@]3(O)CC [CPT-11, irinotecan]
- tumor growth delay [5]: 6 days

B1: huN901-DM1: maytansinoid DM1 conjugated via SPP disulfide link to humanized monoclonal antibody N901 (binds CD56); 3.9 DM1 molecules per antibody (conjugate, chains of the INN, looked up)
VH: QVQLVESGGGVVQPGRSLRLSCAASGFTFSSFGMHWVRQAPGKGLEWVAYISSGSFTIYYADSVKGRFTISRDNSKNTLYLQMNSLRAEDTAVYYCARMRKGYAMDYWGQGTLVTVSS
VL: DVVMTQSPLSLPVTLGQPASISCRSSQIIIHSDGNTYLEWFQQRPGQSPRRLIYKVSNRFSGVPDRFSGSGSGTDFTLKISRVEAEDVGVYYCFQGSHVPHTFGQGTKVEIK
modifications: DM1 via SPP disulfide linker
notes: 3.9 DM1 molecules per antibody
- tumor growth delay [4]: 20 days
- tumor growth delay [6]: 4 days
- animals with complete tumor regression ([1]; SW-2 xenografts, 6 animals per group, topotecan 1.4 mg/kg×5 qd i.v., huN901-DM1 100 μg/kg×5 qd i.v.): 3 animals
- tumor-growth delay in 3 out of 6 animals ([1]; SW-2 xenografts, huN901-DM1 DM1 dose 100 μg/kg×5 qd i.v., the 3 animals without complete regression): 34 days
- tumor growth delay [3]: 4 days
